Values of other authors, collected in patent US6346524B1, “Cancer treatment with temozolomide” (Schering Corporation, priority 1999, dated 2002).

Experiments:
advanced melanoma [1] = conditions: patients having advanced melanoma; Newlands et al. Br. J. Cancer 65 (2) 287-291 (1992)
advanced melanoma [2] = conditions: patients with advanced melanoma; Journal of Clinical Oncology, Vol 13, No. 4, 1995, pp 910-913

In the case of Cn1nnc2c(C(N)=O)ncn2c1=O [Temozolomide, 3,4-dihydro-3-methyl-4-oxoimidazo-[5,1-d] 1,2,3,4-tetrazin-8-carboximide], the “clinical responses achieved, % of patients” value (advanced melanoma [1]) is listed as 17% and the “clinical response achieved, % of patients” value (advanced melanoma [2]) is listed as 21%.
